According to patent US11225465B2, “Albicidin derivatives, their use and synthesis” (TECHNISCHE UNIVERSITÄT BERLIN, priority 2017, dated 2022):
Converted amounts (≈) assume the structure as drawn. Where two headings read alike, the source gives them in different places.

Assays:
[1] = tested on: E. coli DSM 1116; test: Microdilution assay, MIC; format: cell-based; conditions: Escherichia coli, read-out: MIC E. coli DSM1116
Method: (§1) The tests were performed using the micro dilution method.
(§2) The determination of MIC values was performed according to the ninth edition of the Approved Standard M07-A9 (CLSI. Methods for Dilution Antimicrobial Susceptibility Tests for Bacteria That Grow Aerobically; Approved Standard—Ninth Edition. CLSI document M07-A9. Wayne, Pa.: Clinical and Laboratory Standards Institute; 2012.)
(§3) The test was carried out for four different bacterial strains (E. coli DSM 1116 [gram negative], B. subtilis DSM 10 [gram positive], M. luteus DSM 1790 [gram positive], S. typhimurium TA100 [gram negative]). 20 μL of cryo stock of each strain were inoculated in 20 mL of LB media (Lysogeny broth: 10 g/L peptone, 5 g/L yeast extract, 5 g/L NaCl) followed by incubation over night at 37° C., 200 rpm. The test inoculum was adjusted by the 0.5 McFarland Standard (OD625 from 0.08 to 0.1). Within 15 min of preparation, the adjusted inoculum suspension was diluted in MHBII media (BBL T M Mueller-Hinton Broth II, Becton, Dickinson and Company, N.J./USA) so that each well contained approximately 5×10^5 CFU/mL in a final volume of 100 μL. 95 μL of the inoculum were applied per well and 5 μL of the (diluted) antibiotic substance were added.
(§4) Previously the dry antibiotic compounds were dissolved in DMSO (100%) with a concentration of 2560 μg/mL and the resulting stock solutions were further diluted in DMSO (100%). 5 μL of each antibiotic dilution were applied to the microdilution tray to reach final concentrations of 64 μg/mL to 0.008 μg/mL. One row of each well plate was left as a growth control without antibiotic substances and another row of the microdilution tray was used as sterility control (only MHB II-media). The antimicrobial effect of the solvent (DMSO) was tested by adding 5 μL DMSO to several wells without antibiotics.
(§5) Purity check and cell titer control were performed according to International Standard M07-A9 on Mueller-Hinton II Agar (Mueller Hinton II Broth, 15 g/L agar-agar).
(§6) Both microdilution trays and agar plates were incubated at 37° C. for 20 h and subsequently analyzed visually.

[2] = tested on: S. typhimurium TA100; test: Microdilution assay, MIC; format: cell-based; conditions: Salmonella enterica, 20 h, read-out: MIC S. typhimurium TA100
Method: as §1, §2, §3, §4, §5, §6

[3] = tested on: Micrococcus luteus DSM1790; test: Microdilution assay, MIC; format: cell-based; conditions: read-out: MIC M. luteus DSM1790
Method: as §1, §2, §3, §4, §5, §6

[4] = tested on: Bacillus subtilis DSM10; test: Microdilution assay, MIC; format: cell-based; conditions: read-out: MIC B. subtilis DSM10
Method: as §1, §2, §3, §4, §5, §6

[5] = tested on: Pseudomonas aeruginosa ATCC 27853; conditions: n.a. for the compounds; cited from earlier work
[6] = tested on: Staphylococcus aureus ATCC 29213; conditions: n.a. for the compounds; cited from earlier work
[7] = tested on: Staphylococcus aureus ATCC 29213; test: MHK against further strains (Table 2); format: cell-based; conditions: Nr. 8 Staphylococcus aureus ATCC 29213; KBE/ml 6.60E+05
Method: as §1, §2

[8] = tested on: Pseudomonas aeruginosa ATCC 27853; test: MHK against further strains (Table 2); format: cell-based; conditions: Nr. 6 Pseudomonas aeruginosa ATCC 27853; KBE/ml 5.60E+05
Method: as §1, §2

[9] = tested on: Escherichia coli ATCC 25922; test: MHK against further strains (Table 2); format: cell-based; conditions: Nr. 1 Escherichia coli ATCC 25922; KBE/ml 2.80E+05
Method: as §1, §2

[10] = tested on: Escherichia coli ATCC 25922; conditions: n.a. for the compounds; cited from earlier work

Row | Compound | MIC ([1]; DSM1116, 20 h) [µg/mL] | MIC [2] [µg/mL] | MIC ([3]; DSM1790, 20 h) [µg/mL] | MIC ([4]; DSM10, 20 h) [µg/mL] | further results
1 | COc1c(NC(=O)c2ccc(NC(=O)c3ccc(NC(=O)[C@H](CC#N)NC(=O)c4ccc(NC(=O)/C(C)=C/c5ccc(O)cc5)cc4)cc3)c(OC)c2O)ccc(C(=O)O)c1O [Albicidin] | 63 (≈ 74.7 µM) | 63 (≈ 74.7 µM) | 1000 (≈ 1190 µM) | 250 (≈ 297 µM) | –
2 | O=C(O)c1cn(C2CC2)c2cc(N3CCNCC3)c(F)cc2c1=O [CIP, reference compound] | – | – | – | – | MHK range (unlabelled line below the ATCC strain) [5]: 0.25 to 1 mg/L; MHK range (unlabelled line below the ATCC strain) [6]: 0.12 to 0.5 mg/L; MHK [7]: 0.5 mg/L; MHK [8]: 0.5 mg/L; MHK [9]: 0.015 mg/L; MHK range (unlabelled line below the ATCC strain) [10]: 0.004 to 0.015 mg/L
3 | COc1c(NC(=O)c2ccc(NC(=O)c3ccc(NC(=O)C(CN4CCOCC4)NC(=O)c4ccc(NC(=O)/C(C)=C/c5ccc(O)cc5)cc4)cc3)c(OC)c2O)ccc(C(=O)O)c1O [Compound 4, L-Morpholino-Albicidin] | 500 (≈ 554 µM) | 63 (≈ 69.8 µM) | 8000 (≈ 8860 µM) | 250 (≈ 277 µM) | –
4 | COc1c(NC(=O)c2ccc(NC(=O)c3ccc(NC(=O)C(Cc4cn(C)cn4)NC(=O)c4ccc(NC(=O)/C(C)=C/c5ccc(O)cc5)cc4)cc3)c(OC)c2O)ccc(C(=O)O)c1O [Compound 5, L-Methyl-His-Albicidin] | 125 (≈ 139 µM) | 63 (≈ 70.2 µM) | 4000 (≈ 4450 µM) | 500 (≈ 557 µM) | –
5 | COc1c(NC(=O)c2ccc(NC(=O)c3ccc(NC(=O)C4(NC(=O)c5ccc(NC(=O)/C(C)=C/c6ccc(O)cc6)cc5)CCN(C)CC4)cc3)c(OC)c2O)ccc(C(=O)O)c1O [Compound 6, N-Methylpiperidino-Albicidin] | 2000 (≈ 2260 µM) | 2000 (≈ 2260 µM) | ≥ 8000 | ≥ 8000 | –
6 | COc1c(NC(=O)c2ccc(NC(=O)c3ccc(NC(=O)[C@H](Cc4ccccn4)NC(=O)c4ccc(NC(=O)/C(C)=C/c5ccc(O)cc5)cc4)cc3)c(OC)c2O)ccc(C(=O)O)c1O [Compound 7, L-2-Py-Albicidin] | 250 (≈ 279 µM) | 125 (≈ 140 µM) | 2000 (≈ 2230 µM) | 250 (≈ 279 µM) | –
7 | COc1c(NC(=O)c2ccc(NC(=O)c3ccc(NC(=O)[C@H](Cc4cccnc4)NC(=O)c4ccc(NC(=O)/C(C)=C/c5ccc(O)cc5)cc4)cc3)c(OC)c2O)ccc(C(=O)O)c1O [Compound 8] | 250 (≈ 279 µM) | – | 1000 (≈ 1120 µM) | 500 (≈ 559 µM) | –
8 | COc1c(NC(=O)c2ccc(NC(=O)c3ccc(NC(=O)[C@H](Cc4ccncc4)NC(=O)c4ccc(NC(=O)/C(C)=C/c5ccc(O)cc5)cc4)cc3)c(OC)c2O)ccc(C(=O)O)c1O [Compound 9] | 500 (≈ 559 µM) | 125 (≈ 140 µM) | 8000 (≈ 8940 µM) | 2000 (≈ 2230 µM) | –
9 | C#CCOc1ccc(/C=C(\C)C(=O)Nc2ccc(C(=O)NC(CC3(C)N=N3)C(=O)Nc3ccc(C(=O)Nc4ccc(C(=O)Nc5ccc(C(=O)O)c(O)c5OC)c(O)c4OC)cc3)cc2)cc1 (centres unmarked) [Compound 10] | 63 (≈ 69.2 µM) | ≤ 16 | 250 (≈ 275 µM) | 125 (≈ 137 µM) | –
10 | C#CCOc1ccc(C(=O)Nc2ccc(C(=O)NC(CC3(C)N=N3)C(=O)Nc3ccc(C(=O)Nc4ccc(C(=O)Nc5ccc(C(=O)O)c(O)c5OC)c(O)c4OC)cc3)cc2)cc1 (centres unmarked) [Compound 11] | 63 (≈ 72.4 µM) | 16 (≈ 18.4 µM) | 125 (≈ 144 µM) | 125 (≈ 144 µM) | –
11 | C/C(=C\c1ccc(O)cc1)C(=O)Nc1ccc(C(=O)N[C@@H](CC#N)C(=O)Nc2ccc(C(=O)Nc3ccc(C(=O)Nc4ccc(C(=O)O)c(O)c4)c(O)c3)cc2)cc1 [Compound 12, HMZS-pABA-L-Cya-pABA-HpABA-HpABA-OH] | 16000 (≈ 20400 µM) | 4000 (≈ 5110 µM) | 32000 (≈ 40900 µM) | – | –
12 | COc1c(NC(=O)c2ccc(NC(=O)c3ccc(NC(=O)[C@H](CC#N)NC(=O)c4ccc(NC(=O)/C(C)=C/c5ccc(O)cc5)cc4)c(O)c3)c(OC)c2O)ccc(C(=O)O)c1O [Compound 13] | 2000 (≈ 2330 µM) | 500 (≈ 582 µM) | – | 2000 (≈ 2330 µM) | –
13 | COc1c(NC(=O)c2ccc(NC(=O)c3ccc(NC(=O)[C@H](CC#N)NC(=O)c4ccc(NC(=O)/C(C)=C/c5ccc(O)cc5)cc4)cc3O)c(OC)c2O)ccc(C(=O)O)c1O [Compound 14] | 31 (≈ 36.1 µM) | 16 (≈ 18.6 µM) | – | 250 (≈ 291 µM) | –
14 | COc1c(NC(=O)c2ccc(NC(=O)c3ccc(NC(=O)[C@@H](Cc4c[nH]cn4)NC(=O)c4ccc(NC(=O)/C(C)=C/c5ccc(O)cc5)cc4)cc3)c(OC)c2O)ccc(C(=O)O)c1O [Compound 15, D-His-albicidin] | 125 (≈ 141 µM) | 125 (≈ 141 µM) | 8000 (≈ 9050 µM) | 1000 (≈ 1130 µM) | –
15 | COc1c(NC(=O)c2ccc(NC(=O)c3ccc(NC(=O)[C@H](Cc4c[nH]nn4)NC(=O)c4ccc(NC(=O)/C(C)=C/c5ccc(F)cc5)cc4)cc3)c(OC)c2O)ccc(C(=O)O)c1O [Compound 18] | 31 (≈ 35 µM) | ≤ 16 | 250 (≈ 282 µM) | 125 (≈ 141 µM) | –
16 | COc1c(NC(=O)c2ccc(NC(=O)c3ccc(NC(=O)[C@H](CN(C)C)NC(=O)c4ccc(NC(=O)c5ccc(O)cc5)cc4)cc3)c(OC)c2O)ccc(C(=O)O)c1O [Compound 19] | 2000 (≈ 2440 µM) | 500 (≈ 609 µM) | ≥ 8000 | 4000 (≈ 4870 µM) | –
17 | CCOc1c(NC(=O)c2ccc(NC(=O)c3ccc(NC(=O)[C@H](Cc4c[nH]nn4)NC(=O)c4ccc(NC(=O)/C(C)=C/c5ccc(O)cc5)cc4)cc3)c(OCC)c2O)ccc(C(=O)O)c1O [Compound 20] | 16 (≈ 17.5 µM) | 16 (≈ 17.5 µM) | 500 (≈ 548 µM) | 31 (≈ 34 µM) | –
18 | COc1c(NC(=O)c2ccc(NC(=O)c3ccc(N(C)C(=O)[C@H](Cc4c[nH]nn4)NC(=O)c4ccc(NC(=O)/C(C)=C/c5ccc(O)cc5)cc4)cc3)c(OC)c2O)ccc(C(=O)O)c1O [Compound 22] | ≥ 8000 | 2000 (≈ 2220 µM) | ≥ 8000 | ≥ 8000 | –
19 | COc1c(NC(=O)c2ccc(NC(=O)c3ccc(NC(=O)[C@H](Cc4c[nH]nn4)NC(=O)c4ccc(NC(=O)/C(C)=C/c5ccc(O)cc5)cc4)c(OC)c3O)c(OC)c2O)ccc(C(=O)O)c1O [Compound 23] | ≥ 8000 | 2000 (≈ 2150 µM) | ≥ 8000 | ≥ 8000 | –
20 | COc1c(NC(=O)c2ccc(NC(=O)c3ccc(NC(=O)[C@H](Cc4cnn[nH]4)NC(=O)c4ccc(NC(=O)/C(C)=C/c5ccc(O)cc5)cc4)c(O)c3)c(OC)c2O)ccc(C(=O)O)c1O [Compound 24] | 125 (≈ 139 µM) | 63 (≈ 69.9 µM) | 8000 (≈ 8880 µM) | 1000 (≈ 1110 µM) | –
21 | COc1c(NC(=O)c2ccc(NC(=O)c3ccc(NC(=O)[C@H](Cc4cnn[nH]4)NC(=O)c4ccc(NC(=O)/C(C)=C/c5ccc(O)cc5)cc4)cc3O)c(OC)c2O)ccc(C(=O)O)c1O [Compound 25] | 31 (≈ 34.4 µM) | 16 (≈ 17.8 µM) | 4000 (≈ 4440 µM) | 250 (≈ 278 µM) | –
22 | COc1ccc(C#Cc2ccc(C(=O)N[C@@H](Cc3c[nH]nn3)C(=O)Nc3ccc(C(=O)Nc4ccc(C(=O)Nc5ccc(C(=O)O)c(O)c5OC)c(O)c4OC)cc3)cc2)cc1 [Compound 26] | – | – | – | – | MIC ([1]; DSM1116, gram negative, MHBII media, 37° C., 20 h): 63 µg/mL (≈ 75 µM); MIC ([2]; gram negative, MHBII media, 37° C.): ≤ 16 µg/mL; MIC ([3]; DSM1790, gram positive, MHBII media, 37° C., 20 h): 500 µg/mL (≈ 595 µM); MIC ([4]; DSM10, gram positive, MHBII media, 37° C., 20 h): 250 µg/mL (≈ 298 µM)
